Each block holds one molecule with its values, some of them ahead of it.
Key:
[1] = Pharmacokinetics in male Han Wistar rats, intravenous and oral; assay type: in vivo; settings: male Han Wistar rat
Protocol: The pharmacokinetics of compounds E7, E17 and E18, were studied in male Han Wistar rats. The rats were treated intravenously and orally (n=3 for each dose route) with compounds formulated as solutions. The rats were fitted with a jugular cannula for serial sampling. A full profile was acquired from each rat. Plasma extracts were quantitatively analyzed using a specific and sensitive LC-MS/MS bioanalytical method. Inter-individual variations between the three rats in each group were limited (CV for pharmacokinetic parameters was below 50%).

human EP4 receptor = human EP4 receptor (Homo sapiens (Human), UniProt P35408); assay: [3H]-Prostaglandin E2 membrane binding assay toward hEP4 receptors; settings: [3H]-PGE2 1 nM, membranes of human EP4/HEK293 transfectant; read-out: Binding pKi (converted)
Sequence of human EP4 receptor (P35408 whole entry): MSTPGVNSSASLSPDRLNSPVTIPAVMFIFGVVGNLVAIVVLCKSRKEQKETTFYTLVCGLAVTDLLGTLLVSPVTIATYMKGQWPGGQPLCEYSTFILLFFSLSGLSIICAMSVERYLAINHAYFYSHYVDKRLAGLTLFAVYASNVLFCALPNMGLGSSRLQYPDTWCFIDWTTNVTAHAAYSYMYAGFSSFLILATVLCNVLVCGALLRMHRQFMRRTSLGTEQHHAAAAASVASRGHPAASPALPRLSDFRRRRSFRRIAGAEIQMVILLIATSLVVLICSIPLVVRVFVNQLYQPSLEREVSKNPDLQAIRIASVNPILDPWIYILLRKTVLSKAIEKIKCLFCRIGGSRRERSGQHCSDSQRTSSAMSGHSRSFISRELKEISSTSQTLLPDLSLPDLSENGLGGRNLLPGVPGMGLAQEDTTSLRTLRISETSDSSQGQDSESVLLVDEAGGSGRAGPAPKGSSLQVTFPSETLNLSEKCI
Protocol: Human embryonic kidney cells (HEK-293) were stably transfected with expression vector for human EP4 receptor in according to the method described in FuGENE®6 Transfection Reagent's manual (Roche Applied Science®). […] Incubation was conducted in a polypropylene 96 multiwell for 90 min (EP4) or 60 min (EP2) at room temperature prior to separation of the bound and free radioligand by vacuum manifold rapid filtration on glass fiber filters (Unifilter GFB96, PerkinElmer Inc) pre-soaked in 0.3% polyethyleneimine.

Tlast ([1]; iv, 1 mg/kg): 24 h | F ([1]; po, 1 mg/kg): 93% | Tlast ([1]; po, 1 mg/kg): 24 h
Compound: O=C(O)c1ccc(C2(NC(=O)C3CC(F)(F)CCN3Cc3ccc(C(F)(F)F)cc3)CC2)cc1 (single isomer, unassigned) [Example E18, 4-(1-(4,4-difluoro-1-(4-(trifluoromethyl)benzyl)piperidine-2-carboxamido)cyclopropyl)benzoic acid]

Compound: O=C(O)c1ccc(C2(NC(=O)[C@H]3CCCCN3Cc3ccc(C(F)(F)F)cc3)CC2)cc1 [Example E4, lithium (R)-4-(1-(1-(4-(trifluoromethyl)benzyl)piperidine-2-carboxamido)cyclopropyl)benzoate]
Ki (human EP4 receptor): 39.8 nM

Compound: O=C(O)c1ccc(C2(NC(=O)C3CC4(CCN3Cc3ccc(C(F)(F)F)cc3)CC4)CC2)cc1 (single isomer, unassigned) [Example E7, 4-(1-(6-(4-(trifluoromethyl)benzyl)-6-azaspiro[2.5]octane-5-carboxamido)cyclopropyl)benzoic acid]
AUC 0-t ([1]; iv, 5 mg/kg): 29200 ng·h/mL | AUC inf ([1]; iv, 5 mg/kg): 31800 ng·h/mL | CLp ([1]; iv, 5 mg/kg): 43 mL/h | Tlast ([1]; iv, 5 mg/kg): 24 h | Vss ([1]; iv, 5 mg/kg): 395 mL | t½ ([1]; iv, 5 mg/kg): 7.4 h | AUC 0-t ([1]; po, 5 mg/kg): 22900 ng·h/mL | AUC inf ([1]; po, 5 mg/kg): 24900 ng·h/mL | Cmax ([1]; po, 5 mg/kg): 5330 ng/mL | F ([1]; po, 5 mg/kg): 78% | Tlast ([1]; po, 5 mg/kg): 24 h | Tmax ([1]; po, 5 mg/kg): 0.5 h | t½ ([1]; po, 5 mg/kg): 6.7 h

F ([1]; po, 1 mg/kg): 85% | Tlast ([1]; po, 1 mg/kg): 24 h
Compound: O=C(O)c1ccc(C2(NC(=O)[C@H]3CC(F)(F)CCN3Cc3ccc(C(F)(F)F)cc3)CC2)cc1 [Example E17, (R)-4-(1-(4,4-difluoro-1-(4-(trifluoromethyl)benzyl)piperidine-2-carboxamido)cyclopropyl)benzoic acid]

Compound: C[C@H](NC(=O)[C@H]1CCCN1Cc1ccc(C(F)(F)F)cc1)c1ccc(C(=O)O)cc1 [Example E27, lithium 4-((S)-1-((R)-1-(4-(trifluoromethyl)benzyl)pyrrolidine-2-carboxamido)ethyl)benzoate]
Ki (human EP4 receptor): 50.1 nM

Source: patent US9181279B2, “Cyclic amine derivatives as EP4 receptor antagonists” (ROTTAPHARM BIOTECH S.R.L., priority 2011, dated 2015)
